Results taken from US20230085307A1, “PYRIDAZINONE COMPOUND AND HERBICIDE” (NISSAN CHEMICAL CORPORATION, priority 2019, published 2023).

How the values were obtained:
Japanese bulrush = test: Test Example 1: herbicidal activity, application before weed generation under submerged conditions (Table 16, symbol B); type: in vivo, Japanese bulrush (Schoenoplectus juncoides); settings: 320 g/ha applied herbicide
Method in brief: (§1)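 Emulsion formulation, water-diluted to set dose, was put onto the flooded surface (4 cm depth, alluvial soil) the same day weeds were sown and 2.5-leaf rice transplanted. After 3 weeks at 25-30 °C under glass, each species was rated 0 (≤5% kill) to 5 (≥90% kill).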

oval-leafed pondweed = test: Test Example 1: herbicidal activity, application before weed generation under submerged conditions (Table 16, symbol C); type: in vivo, oval-leafed pondweed (Monochoria vaginalis); settings: 320 g/ha applied herbicide
Method in brief: as §1

late watergrass = test: Test Example 2: herbicidal activity, application during weed generation under submerged conditions (Table 17, symbol A); type: in vivo, late watergrass (Echinochloa oryzicola); settings: AAH 320 g/ha; application during weed generation, submerged conditions
Method in brief: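 Steps: fill Wagner pots with alluvial soil; add water to give 4 cm depth; sow the species mixed; grow under glass at 25–30° C.; at 1–2 leaves apply water-diluted emulsion formulation to the water surface at a fixed herbicide amount; score after 3 weeks.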

barnyard grass [1] = test: Test Example 3: herbicidal effect by foliage application, Wagner pot (Table 18, symbol H); type: in vivo, barnyard grass (Echinochloa crus-galli); settings: amount of applied herbicide 320 g/ha
Method in brief: (§2)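 Plants were sown in alluvial soil held under 0.1–0.5 cm standing water and grown 14 days in a greenhouse at 25–30 °C. An emulsifiable formulation, water-diluted to the set dose, was then sprayed onto the foliage, and effects were scored three weeks later using previously defined criteria.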

Chinese sprangletop = test: Test Example 3: herbicidal effect by foliage application, Wagner pot (Table 18, symbol D); type: in vivo, chinese sprangletop (Leptochloa chinensis); settings: amount of applied herbicide 320 g/ha
Method in brief: as §2

barnyard grass [2] = test: Test Example 4: herbicidal effect by soil treatment (Table 19, symbol H); type: in vivo, barnyard grass (Echinochloa crus-galli); settings: amount of applied herbicide 320 g/ha
Method in brief: (§3)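 Applied as a water-diluted emulsion, the compound was sprayed onto soil covering newly sown seeds. Evaluation came three weeks after application, in a greenhouse held at 25° C. to 30° C.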

windgrass = test: Test Example 4: herbicidal effect by soil treatment (Table 19, symbol L); type: in vivo, windgrass (Apera spica-venti); settings: amount of applied herbicide 320 g/ha
Method in brief: as §3

velvetleaf [3] = test: Test Example 4: herbicidal effect by soil treatment (Table 19, symbol M); type: in vivo, velvetleaf (Abutilon theophrasti); settings: amount of applied herbicide 320 g/ha
Method in brief: as §3

lambsquarters [4] = test: Test Example 4: herbicidal effect by soil treatment (Table 19, symbol O); type: in vivo, lambsquarters (Chenopodium album); settings: amount of applied herbicide 320 g/ha
Method in brief: as §3

persian speedwell = test: Test Example 4: herbicidal effect by soil treatment (Table 19, symbol R); type: in vivo, Persian speedwell (Veronica persica); settings: amount of applied herbicide 320 g/ha
Method in brief: as §3

barnyard grass [5] = test: Test Example 5: herbicidal effect by foliage application, plastic box (Table 20, symbol H); type: in vivo, barnyard grass (Echinochloa crus-galli); settings: foliage application, AAH 320 g/ha, evaluated three weeks after application
Method in brief: (§4)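 Sow seeds spot-wise in sterilized diluvial soil; cover with ~1.5 cm soil. Grow 14 days in greenhouse, 25° C. to 30° C. Spray foliage with emulsion diluted to predetermined amount. Rate effect after 3 weeks.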

blackgrass = test: Test Example 5: herbicidal effect by foliage application, plastic box (Table 20, symbol J); type: in vivo, blackgrass (Alopecurus myosuroides); settings: foliage application, AAH 320 g/ha, evaluated three weeks after application
Method in brief: as §4

Italian ryegrass = test: Test Example 5: herbicidal effect by foliage application, plastic box (Table 20, symbol K); type: in vivo, Italian ryegrass (Lolium multiflorum); settings: foliage application, AAH 320 g/ha, evaluated three weeks after application
Method in brief: as §4

velvetleaf [6] = test: Test Example 5: herbicidal effect by foliage application, plastic box (Table 20, symbol M); type: in vivo, velvetleaf (Abutilon theophrasti); settings: foliage application, AAH 320 g/ha, evaluated three weeks after application
Method in brief: as §4

redroot pigweed = test: Test Example 5: herbicidal effect by foliage application, plastic box (Table 20, symbol N); type: in vivo, redroot pigweed (Amaranthus retroflexus); settings: foliage application, AAH 320 g/ha, evaluated three weeks after application
Method in brief: as §4

lambsquarters [7] = test: Test Example 5: herbicidal effect by foliage application, plastic box (Table 20, symbol O); type: in vivo, lambsquarters (Chenopodium album); settings: foliage application, AAH 320 g/ha, evaluated three weeks after application
Method in brief: as §4

SMILES | Herbicidal effect on B: Japanese bulrush (grade 0-5) (Japanese bulrush) | Herbicidal effect on C: oval-leafed pondweed (grade 0-5) (oval-leafed pondweed) | herbicidal effect rating, A: late watergrass (late watergrass) | herbicidal effect on H: barnyard grass (barnyard grass [1]) | herbicidal effect on D: Chinese sprangletop (Chinese sprangletop) | herbicidal effect on H: barnyard grass (barnyard grass [2]) | herbicidal effect on L: windgrass (windgrass) | herbicidal effect on M: velvetleaf (velvetleaf [3]) | herbicidal effect on O: lambsquarters (lambsquarters [4]) | herbicidal effect on R: persian speedwell (persian speedwell) | H: barnyard grass, herbicidal effect (criteria 0-5) (barnyard grass [5]) | J: blackgrass, herbicidal effect (criteria 0-5) (blackgrass) | K: Italian ryegrass, herbicidal effect (criteria 0-5) (Italian ryegrass) | M: velvetleaf, herbicidal effect (criteria 0-5) (velvetleaf [6]) | N: redroot pigweed, herbicidal effect (criteria 0-5) (redroot pigweed) | O: lambsquarters, herbicidal effect (criteria 0-5) (lambsquarters [7])
Cc1nn(C)c(=O)c(-c2c(-c3ccc(C#N)cc3)sc3ccc(F)cc23)c1O [2-340] | 5 (Herbicidal rate of 90% or more (almost completely withered)) | 4 (Herbicidal rate of 70% or more and less than 90%) | 5 (Herbicidal rate of 90% or more (almost completely withered)) | 5 (Herbicidal rate of 90% or more (almost completely withered)) | 5 (Herbicidal rate of 90% or more (almost completely withered)) | 5 (Herbicidal rate of 90% or more (almost completely withered)) | 4 (Herbicidal rate of 70% or more and less than 90%) | 5 (Herbicidal rate of 90% or more (almost completely withered)) | 5 (Herbicidal rate of 90% or more (almost completely withered)) | 5 (Herbicidal rate of 90% or more (almost completely withered)) | 5 (Herbicidal rate of 90% or more (almost completely withered)) | 5 (Herbicidal rate of 90% or more (almost completely withered)) | 5 (Herbicidal rate of 90% or more (almost completely withered)) | 5 (Herbicidal rate of 90% or more (almost completely withered)) | 5 (Herbicidal rate of 90% or more (almost completely withered)) | 5 (Herbicidal rate of 90% or more (almost completely withered))
CCCC(=O)Oc1c(C)nn(C)c(=O)c1-c1c(-c2ccc(SC(C)C)cc2)sc2ccc(F)cc12 [2-253] | 3 (Herbicidal rate of 40% or more and less than 70%) | 0 (Herbicidal rate of 5% or less (almost no effect)) | 3 (Herbicidal rate of 40% or more and less than 70%) | 5 (Herbicidal rate of 90% or more (almost completely withered)) | 3 (Herbicidal rate of 40% or more and less than 70%) | 1 (Herbicidal rate of 5% or more and less than 20%) | 0 (Herbicidal rate of 5% or less (almost no effect)) | 1 (Herbicidal rate of 5% or more and less than 20%) | 4 (Herbicidal rate of 70% or more and less than 90%) | 2 (Herbicidal rate of 20% or more and less than 40%) | 5 (Herbicidal rate of 90% or more (almost completely withered)) | 4 (Herbicidal rate of 70% or more and less than 90%) | 3 (Herbicidal rate of 40% or more and less than 70%) | 5 (Herbicidal rate of 90% or more (almost completely withered)) | 5 (Herbicidal rate of 90% or more (almost completely withered)) | 4 (Herbicidal rate of 70% or more and less than 90%)
